The values that follow come from patent US4113774A, “N-(Dichloroacetyl) diamine compounds and process of preparing same” (Sterling Drug Inc., priority 1977, dated 1978).

Molecules are shown by their SMILES.

Series [1] deals with liver acetaldehyde dehydrogenase. As to the kind of experiment: Inhibition of liver acetaldehyde dehydrogenase (I50). In kind it is biochemical. The following applies: bovine liver enzyme, propionaldehyde substrate, NAD, pH 9.6, 26.0 °C, 15 minutes; read-out: I50 values (molar concentration for 50% inhibition) for inhibition of liver acetaldehyde dehydrogenase. An excerpt: The specific activity of the partially purified enzyme preparation was 172 units per milligram of protein. The assay system contained 30μ moles of sodium pyrophosphate buffer with a final pH of 9.6, 135μ moles of propylene glycol to serve as a vehicle for the compound being tested, 0.5μ mole of propionaldehyde, 1μ mole of nicotinamide adenine dinucleotide and 120 units of enzyme to initiate the reaction in a total volume of 3.0 milliliters. The assay mixture was contained in 1 centimeter silica cuvettes. The reaction was followed by measuring the increase in optical density at 340 mμ with time on the Beckman du spectrophotometer which was equipped with dual thermospacers set to maintain the temperature of the cell compartment at 26.0 ± 0.1° C. by means of a circulating water bath (Haake Thermostat F, Berlin). Readings of optical density were taken each minute for 15 minutes. The optical density at 15 minutes corrected for optical density at zero time was used to calculate percent inhibition compared with controls which contained all constituents except the compound being tested. Fifty percent inhibition values (I50) were determined from first order reaction plots at multiple levels of the tested compound. Sodium pyrophosphate changes pH when diluted with the other reaction constitutents in water; so, this effect was compensated for to bring the final pH of the incubation mixture to 9.6.

In series [2] the test system is antispermatogenic activity. The following applies: cited from earlier work.
Another series concerns aldehyde dehydrogenase. The settings on record: cited from earlier work; for effectiveness compared with disulfiram: evaluation said to considerably underestimate effectiveness.
Series [3] has as its system antispermatogenic activity. The settings on record: Coulston et al.; Surrey U.S. Pat. No. 3,143,566; cited from earlier work.
The test system of a further series is spermatogenesis. The settings on record: cited from earlier work.
A further series deals with E. criceti. The settings on record: cited from earlier work.
The conditions of series [4]: man and animals; cited from earlier work.

`O=C(NCCCCCCCCNC(=O)C(Cl)Cl)c1ccc(Cl)cc1` [Example B-1, N-(dichloroacetyl)-N'-(4-chlorobenzoyl)-1,8-octanediamine]: the IC50 in series [1] was 2.7 µM.
With `O=C(NCCCCCCCCNC(=O)C(Cl)Cl)C(Cl)Cl` [Win 18,466, N,N'-Bis(dichloroacetyl)-1,8-octanediamine], the “antispermatogenic activity in rats” value in series [2] was “to have antispermatogenic activity in rats”. Besides, in the series with aldehyde dehydrogenase, the “inhibitor of aldehyde dehydrogenase” value was “to be an inhibitor of aldehyde dehydrogenase” and the “effectiveness compared with disulfiram” value was “about as effective as disulfiram”. In addition, the antispermatogenic activity entry in series [3] is on record as “highly antispermatogenically-active”. Further, the “suppression of spermatogenesis in man” value with spermatogenesis is recorded as “to suppress spermatogenesis in man”. Besides, the “in vivo amebicidal activity against E. criceti in hamsters” value in the series on E. criceti is “not to have in vivo amebicidal activity”. In addition, the side effect result in series [4] is “a reaction to ethanol in man and animals”.
On to `CCN(Cc1ccc(CN(CC)C(=O)C(Cl)Cl)cc1)C(=O)C(Cl)Cl` [Win 13,099, N,N'-bis(dichloroacetyl)-N,N'-diethyl-1,4-bis(aminomethyl)benzene], for which, in the series with aldehyde dehydrogenase, the “effectiveness compared with disulfiram” value was “about as effective as disulfiram”. In addition, the side effect entry in series [4] is “a reaction to ethanol in man and animals”.
Turning to `O=C(NCCCCCCCCNC(=O)C(Cl)Cl)c1ccc(Cl)c(Cl)c1` [Example B-2, N-(Dichloroacetyl)-N'-(3,4-dichlorobenzoyl)-1,8-octanediamine], the IC50 in series [1] amounted to 0.82 µM.
As for `CCN(CC)C(=S)SSC(=S)N(CC)CC` [disulfiram, bis(diethylthiocarbamoyl) disulfide], in series [1], the IC50 was found to be 13 µM.
